Test results reported in patent publication US20130273096A1, “Therapeutic Sulfated Polysaccharides, Compositions Thereof, and Methods for Treating Patients” (priority 2011, published 2013).

Tests used:
[1] = tested on: human coronary artery endothelial cells (HCAEC); assay: LDL permeability of HCAEC monolayers; type: cell-based; conditions: 12.5 to 12004/mL, 24 hrs to 5 day, FIGS. 6 and 7
Protocol: To test whether any of the RS isoforms could inhibit apoptosisn in human coronary artery endothelial cells (HCAEC), the HCAEC (human coronary artery endothelial cell) monolayers were incubated with each of two isoforms, RS#1 or RS#2, at concentrations ranging from 12.5 to 12004/mL for a period of time ranging from 24 hrs to 5 day, before the permeability of LDL (low density lipoprotein) was measured. In addition, some monolayers were induced to undergo apoptosis with TNF-α/CHX in the presence or absence of RS#1 or RS#2 and the permeability of LDL was measured. As shown in the figure, Dil means 11′-dioctadecyl-3,3-3′,3′-tetramethylindo-carbocyanide perchlorate. […] When the monolayers were induced to undergo apoptosis the permeability increased by ˜2-3-fold.

endothelial cells (EC) = assay: Disaccharide analysis of heparan sulfate synthesized by endothelial cells; type: cell-based; conditions: EC exposed to RS vs control cell fraction; FIG. 4
Protocol: Purified heparin sulfate (HS) from the endothelial cells (EC) exposed or not exposed to RS #2 were incubated with a mixture of heparin lyases (heparinase I and II, 2.5 mlU each, available from Sigma) and the disaccharides produced by the enzymatic action were separated on a Phenosphere SAX column (Phenomenex, Torrance, Calif., USA) 150×4.6 mm using a NaCl gradient of 0-1 M in 30 min with a flux of 1 mL/min. Individual fractions (0.5 mL) were collected and counted using a micro-beta counter. […] The abbreviations used in the figure are: GlcNS(6S)=2-deoxy-6-O-sulfo-2-(sulfoamino)-α-D-glucopyranoside; GlcA=β-D-glucopyranuronosyl; GlcNS(3S,6S)=2-deoxy-3,6-di-O-sulfo-2-(sulfoamino)-α-D-glucopyranosyl; IdoA(2S)=2-O-sulfo-α-L-idopyranuronosyl; and, GlcNS(6S)OMe=methyl-O-2-deoxy-6-O-sulfo-2-(sulfoamino)-α-D-glucopyranoside.
As for the heparin stimulus, the HS produced by these cells have more of heparin sequences [-4) IdoA2S(1-4)GlcNS,6S] (heparin's basic structure). […] Counting from the left, the RS-induced heparans are chains of disaccharide pairs like sugar groups number 4-5 hooked together. Additionally, the major fraction of stimulated heparan sulfate produced are tri-sulfated discaccharides (Iodo2S-GlcNS,6S), typical of the major sequence in heparin.

HCAEC monolayers [2] = assay: Water flux through HCAEC monolayers; type: cell-based, human; conditions: FIG. 8
endothelial cells = assay: Heparan sulfate (HS) stimulus experiment; type: cell-based; conditions: vs control; FIG. 10
Protocol: A heparin sulfate (HS) stimulus experiment was performed as known in the art, using the four RS isoforms described herein. […] While the results shown here are limited to the RS isoforms studied, the type of polysaccharides to which this applies can be expanded to other classes of compounds that likely have similar effects, such as PUFAs, non-sulfated PS, other polymers, and the like. These RS (and other similar acting substances found in nature) can be used for in vivo HS and GAG production instead of administering HS or other GAGS for therapeutic effect.

HCAEC monolayers [3] = assay: Heparan sulfate immunostaining of HCAEC monolayers; type: cell-based, human; conditions: 1004/mL for 24 hrs; confocal microscope; FIG. 9
Protocol: HCAEC monolayers were incubated with RS#1 at 1004/mL for 24 hrs and immunostaining for heparan sulfate was performed. The monolayers were then imaged using a laser scanning confocal microscope. One control and one RS#1-treated monolayers were stained and four representative fields from each case were imaged. In control monolayers, heparan sulfate immunostaining seemed to be concentrated on the cell-cell junction area (FIG. 9A).

| Substance | reduction of LDL permeability of control monolayers [1] | heparin sequences composed of the tri-sulfated disaccharide (ΔU2S-GlcNS,6S) in HS synthesized by EC (endothelial cells (EC)) | decrease of water flux through HCAEC monolayers (HCAEC monolayers [2]) | cellular HS content (cellular fraction of heparans) (endothelial cells) | coverage of heparan sulfate on HCAEC monolayers (immunostaining) (HCAEC monolayers [3]) |
| --- | --- | --- | --- | --- | --- |
| rhamnan sulfate [RS #2] | 5 fold | significant increase | ~20% | – | – |
| rhamnan sulfate [RS #3] | – | – | – | no change | – |
| L-arginine (L-Arg) salt of rhamnan sulfate [RS #1] | 5 fold | – | ~50% | – | increased the coverage |
